Data reported in PubChem BioAssay (NCI).
Where “and” joins values, the source holds several entries; their conditions need not be identical. Equal entries are not always repeated.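 Growth conditions: 96-well plates. Treatment: test compound, 48 hours, 5 concentrations. Analysis: linear interpolation between bracketing concentrations; unreached endpoints set to highest concentration. The concentration for 50% growth inhibition is given as GI50. At the TGI there is no net growth.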

Assays:
Assay in all cases: NCI-60 cell line screen, 48 h
LOX IMVI melanoma = tested on: LOX IMVI melanoma
HCT-15 colon = tested on: HCT-15 colon
SW-620 colon = tested on: SW-620 colon
SK-MEL-28 melanoma = tested on: SK-MEL-28 melanoma
NCI-H522 lung = tested on: NCI-H522 lung
UACC-257 melanoma = tested on: UACC-257 melanoma
NCI-H226 lung = tested on: NCI-H226 lung
MDA-MB-231 breast = tested on: MDA-MB-231 breast
PC-3 prostate = tested on: PC-3 prostate
DU-145 prostate = tested on: DU-145 prostate

SMILES	TGI (LOX IMVI melanoma)	TGI (HCT-15 colon)	TGI (SW-620 colon)	TGI (SK-MEL-28 melanoma)	TGI (NCI-H522 lung)	TGI (UACC-257 melanoma)	TGI (NCI-H226 lung)	GI50 (LOX IMVI melanoma)	GI50 (NCI-H226 lung)	GI50 (MDA-MB-231 breast)	TGI (MDA-MB-231 breast)	GI50 (HCT-15 colon)	GI50 (SW-620 colon)	GI50 (SK-MEL-28 melanoma)	GI50 (PC-3 prostate)	TGI (PC-3 prostate)	GI50 (NCI-H522 lung)	GI50 (UACC-257 melanoma)	GI50 (DU-145 prostate)	TGI (DU-145 prostate)
O=C(/C=C/c1ccc([N+](=O)[O-])o1)N1CCN(Cc2ccccc2)CC1	26.6 µM	15.9 µM	21.6 µM	16.9 µM	8.16 µM	20.8 µM	–	–	–	–	–	–	–	–	–	–	–	–	–	–
COc1ccc(-c2onc(-c3ccc([N+](=O)[O-])cc3)c2C2=NCCN2)cc1	> 100 µM	> 100 µM	> 100 µM	> 100 µM	–	52.1 µM	> 100 µM	–	–	–	–	–	–	–	–	–	–	–	–	–
CCNC(=O)CCN(C(=O)O)S(=O)(=O)c1ccc(NC(=O)c2ccccc2)cc1	43.8 µM	> 100 µM	32 µM	> 100 µM	> 100 µM	> 100 µM	> 100 µM	–	–	–	–	–	–	–	–	–	–	–	–	–
O=[N+]([O-])c1cccc(C2N3CCCCC3[C@@H]3c4[nH]c5ccccc5c4CCN23)c1 (stereo partly drawn)	–	23.3 µM	> 100 µM	29.8 µM	–	27 µM	–	–	–	–	–	–	–	–	–	–	–	–	–	–
Nc1c(C(=O)c2ccc(Cl)cc2)sc(Nc2ccccc2)c1-c1nc2ccccc2s1	> 100 µM	> 100 µM	> 100 µM	> 100 µM	> 74.1 µM	> 100 µM	> 100 µM	3.25 µM	1.58 µM	2.35 µM	> 100 µM	2.44 µM	1.2 µM	4.31 µM	2.35 µM	> 100 µM	3.13 µM	> 100 µM	–	–
COC(=O)c1s/c(=N\C(=S)N(C)C)n(-c2ccccc2)c1C(=O)OC	> 100 µM	> 100 µM	> 100 µM	> 100 µM	> 100 µM	> 100 µM	> 100 µM	–	–	–	–	–	–	–	–	–	–	–	–	–
COc1cc(/C=C(\C#N)C(=O)c2ccccc2)ccc1OCc1ccccc1	> 100 µM	> 100 µM	> 100 µM	> 100 µM	> 100 µM	> 100 µM	> 100 µM	–	–	–	–	–	–	–	–	–	–	–	–	–
COc1cc(C(=O)/C(C)=C/c2c[nH]c3ccccc23)cc(OC)c1OC	11.5 µM	> 100 µM	> 100 µM	–	0.00728 µM	–	> 100 µM	0.00468 µM	–	0.0039 µM	> 100 µM	0.0034 µM	0.00416 µM	0.0175 µM	0.00789 µM	> 100 µM	0.00282 µM	–	0.00383 µM	> 100 µM
CCOC(=O)c1cc(C#N)c(=O)n(/N=C(\C)c2ccncc2)c1O	> 100 µM	> 100 µM	> 100 µM	> 100 µM	–	> 100 µM	> 100 µM	> 100 µM	> 100 µM	> 100 µM	> 100 µM	> 100 µM	> 100 µM	> 100 µM	> 100 µM	> 100 µM	–	> 100 µM	> 100 µM	> 100 µM
CCCCc1c2c(nc3c1CCC/C3=C\c1ccccc1)C(=O)CCC2	34.1 µM	51.9 µM	45 µM	41.8 µM	29.5 µM	44.8 µM	45.3 µM	–	–	–	–	–	–	–	–	–	–	–	–	–
Cc1[nH]c2ccccc2c1C1Cc2ccccc2N1C(=O)/C=C\C(=O)O (stereo not drawn)	37.6 µM	> 100 µM	> 100 µM	–	77.4 µM	37.8 µM	> 100 µM	–	–	–	–	–	–	–	–	–	–	–	–	–
CCCCCCCCC[C@@H]1CC(=O)OCC2OC(O[C@H](CCCCCCCCC)CC(=O)OCC3OC(O[C@H](CCCCCCCCC)CC(=O)OCC4OC(O1)C(O)C(O)C4O)C(O)C(O)C3O)C(O)C(O)C2O (stereo partly drawn)	11.7 µM	21 µM	17.8 µM	18.6 µM	23.5 µM	24.2 µM	24.6 µM	–	–	–	–	–	–	–	–	–	–	–	–	–
NNC(=O)/C(=C/c1ccc(Cl)c(Cl)c1)NC(=O)c1ccccc1	> 100 µM	–	> 100 µM	> 100 µM	–	> 100 µM	> 100 µM	–	–	–	–	–	–	–	–	–	–	–	–	–
CCN1CCN(C(=O)[C@]23CC[C@@H](C)[C@H](C)[C@@H]2C2=CC[C@@H]4[C@@]5(C)C/C(=C/c6ccncc6)C(=O)C(C)(C)[C@@H]5CC[C@@]4(C)[C@]2(C)CC3)CC1	2.98 µM	3.35 µM	3.7 µM	3.03 µM	–	3.92 µM	3.64 µM	1.51 µM	1.75 µM	1.55 µM	2.95 µM	1.65 µM	1.71 µM	1.65 µM	1.34 µM	3.01 µM	–	1.84 µM	1.87 µM	3.43 µM
COc1cc2c(cc1OCCCOc1cc3c(cc1OC)C(=O)N1C[C@H](F)C[C@H]1C=N3)N=C[C@@H]1C[C@@H](F)CN1C2=O	10.5 µM	23.6 µM	20 µM	29.9 µM	4.59 µM	–	–	2.41 µM	–	16 µM	31.3 µM	10.3 µM	4.2 µM	15.7 µM	12.6 µM	37.3 µM	1.88 µM	–	3.44 µM	14.7 µM
COc1ccc([N+]2=NC(c3ccc([N+](=O)[O-])cc3)=NN(c3ccccc3)C2)cc1	> 100 µM	> 100 µM	> 100 µM	> 100 µM	5.87 µM and 10.5 µM	> 100 µM	> 100 µM	–	–	–	–	–	–	–	–	–	–	–	–	–
CC(C)=CCCC(C)c1ccc(C)c2c1OCN(CC1CCNCC1)C2 (stereo not drawn)	20.2 µM	21.1 µM	23.1 µM	29.3 µM	28.6 µM	–	33.8 µM	5.87 µM	17.7 µM	12.5 µM	28.3 µM	6.51 µM	9.87 µM	15.7 µM	16.5 µM	42.1 µM	13.5 µM	–	16.4 µM	32.2 µM
CCC1(CC)C(=O)OC(=O)C1(CC)CC	> 100 µM	> 100 µM	> 100 µM	> 100 µM	> 100 µM	–	–	–	–	–	> 100 µM	–	–	–	–	> 100 µM	–	–	–	> 100 µM
O=C1OC(CC(=O)c2ccc(Cl)c(Cl)c2)C(Cl)=C1Cl (stereo not drawn)	> 100 µM	> 100 µM	> 100 µM	> 100 µM	72.6 µM	> 100 µM	> 100 µM	–	–	–	–	–	–	–	–	–	–	–	–	–
